The SangsterLogP compilation

Key:
[1] = method code SF-AS, from DOI: 10.1021/jm00213a023, PMID: 321779
[2] = method code SF, from DOI: 10.1021/jm00213a023, PMID: 321779
[3] = method code SF-C, from DOI: 10.1021/jm00213a023, PMID: 321779

## CCCCOc1cc(N)ccc1C(=O)O
[1]
  logP: 1.24

## Nc1ccc(C(=O)O)c(Br)c1
[1]
  logP: 1.49

## CCCCCCCOc1cc(N)ccc1C(=O)O
[1]
  logP: 3.37

## Nc1ccc(C(=O)O)cc1F
[1]
  logP: 1.41

## Nc1ccc(C(=O)O)cc1N1C(=O)CSC1=S
[2]
  logP: 1.66

## Nc1ccc(C(=O)O)cc1Br
[1]
  logP: 2.23

## Nc1ccc(C(=O)O)c(N)c1
[1]
  logP: -0.31

## Nc1ccc(C(=O)O)c(I)c1
[1]
  logP: 1.65

## CC(C)CCOc1cc(N)ccc1C(=O)O
[1]
  logP: 2.3

## Nc1ccc(C(=O)O)c(F)c1
[1]
  logP: 1.29

## Nc1ccc(C(=O)O)cc1N
[1]
  logP: 0.13

## Nc1ccc(C(=O)O)c([N+](=O)[O-])c1
[1]
  logP: 1.21

## Cc1cc(N)ccc1C(=O)O
[3]
  logP: 1.14

## CCCCCCCCOc1cc(N)ccc1C(=O)O
[1]
  logP: 3.77

## COc1cc(N)ccc1C(=O)O
[1]
  logP: 0.45

## Nc1ccc(C(=O)O)cc1O
[1]
  logP: 0.5

## Nc1ccc(C(=O)O)c(Cl)c1
[1]
  logP: 1.33

## CCOc1cc(N)ccc1C(=O)O
[2]
  logP: 0.99

## Nc1ccc(C(=O)O)cc1I
[1]
  logP: 2.36

## CCCCCOc1cc(N)ccc1C(=O)O
[1]
  logP: 2.38

## C=CCOc1cc(N)ccc1C(=O)O
[1]
  logP: 1.25

## Nc1ccc(C(=O)O)cc1Cl
[1]
  logP: 2.35
